The source of these data is patent publication US20050003378A1, “Inhibitor of demethylase, antitumorigenic agent, and an in vitro assay for demethylase inhibitors” (priority 2002, published 2005).

Experiment [1] deals with endogenous demethylase activity. As to the kind of experiment: Active demethylation of in vitro methylated CMV-GFP transiently transfected into HEK 293 cells (HpaII/MspI digestion, Southern blot). To be noted: for percentage of methylated GFP remaining (inhibition of TSA induced active demethylation of methylated CMV-GFP): 0.3 μM TSA, 2, 4, 8 mM compound, harvested 72 hours post transfection.

The next experiment has as its target T1, human MBD2/dMTase (Homo sapiens, UniProt Q9UBB5).
T1 construct: made in house; host or cells: SF9 insect cells (baculovirus, transfer vector pBlueBacHis2 C)
As to the kind of experiment: In vitro demethylation assay with recombinant MBD2/dMTase. It counts as biochemical. Particulars: for conversion of methyl-dCMP to dCMP by MBD2/dMTase: 24 hours at 37° C. Here is the method:
AdoMet preparations for in vitro studies—AdoMet was prepared as a 50 mM solution in distilled water either by freeze drying a 32 mM AdoMet solution, which contained 10% ethanol and 5 mM sulfuric acid (New England Biolabs) immediately before use or by dissolving lyophilized powder (SIGMA) in distilled water. To control for possible nonspecific effects of remnants of the AdoMet storage buffer we freeze dried a solution of 5 mM sulfuric acid and 10% ethanol under the same conditions as done with the AdoMet solution and added distilled water after lyophilizing. AdoHcy was purchased from SIGMA and dissolved in distilled water at a 50 mM concentration.
Purification of recombinant MBD2/dMTase from SF9 cells—A fragment containing human MBD2/dMTase was excised from pCR2.1-dMTase (10) with BamHI and XhoI and transferred to the Baculovirus expression transfer vector pBlueBacHis2 C (Invitrogen). PBlueBacHis2 C-MBD2/dMTase and Bac-N-Blue viral DNA were co-transfected into the SF9 insect cell line, and recombinant viruses were isolated, identified and amplified according to the manufacturer's protocol (Invitrogen) with no modifications. High titer P3 viral stocks were used for infections. Insect SF9 cells were cultured in spinner flasks to a density of 2.5×10^6 cells/ml in Grace's Insect Cell Culture Medium Supplemented (1×) from Life Technologies. For infection, 5×10^6 cells were plated in 10 cm tissue culture plates (Sarstedt) and allowed to settle and attach for 30 minutes. The culture medium was removed and was replaced with 10 ml of the same medium containing MBD2/dMTase virus at a multiplicity of infection of 10. The cells were cultured with the virus for 5 days at 27° C. and were then harvested by scraping in cold phosphate buffered saline. Cell pellets from 10 plates were frozen and kept at −70° C. until they were used for enzyme purification. Frozen pellets were thawed in 5 ml of lysis buffer (10 mM Tris-HCl pH 8.0, 5 mM MgCl2, 500 mM NaCl, 0.05% Tween 20, 10% glycerol and 10 mM imidazole) containing 1 μg/ml of the following protease inhibitors: aprotinin, leupeptin and pefablock. Protease inhibitors were added to all the solutions used in the purification. The homogenates were subjected to two cycles of freezing and thawing (5 minutes per step). DNA in the homogenate was sheered by passing through a 18.5 gauge needle 10 times. The extracts were then subjected to 15 cycles of sonication (10 seconds burst, 10 seconds gap per cycle at 20% of maximal output). The extracts were centrifuged at 10,000×g for 35 minutes. The supernatant was transferred into a fresh tube and was recentrifuged for additional 25 minutes at 15,000×g. The extract was filtered through a 5 micron filter to remove any particulate matter and the buffer was exchanged on a PD-10 buffer exchange column (Amersham Pharmacia) with buffer L (10 mM Tris-HCl pH 8.0, 10 mM MgCl2) containing 50 mM NaCl. Recombinant MBD2/dMTase was partially purified by Q-sepharose (Pharmacia) ion exchange chromatography. Q-sepharose beads (1 ml of swollen beads) were washed extensively and preequilibrated with buffer L containing 50 mM NaCl and divided into 3 equal aliquots. The cell extracts were sequentially bound three times to the 3 aliquots of Q-sepharose beads in batch in 15 ml tubes by shaking gently on a Nutator for 45 minutes at 4° C. […]

For experiment [2], the system named is A549 human lung carcinoma cells. As to the kind of experiment: Soft agar assay (anchorage independent growth), A549 cells. The experiment is classed as cell-based. To be noted: single 24 hour treatment at 4 mM, colonies counted 21 days after plating. The procedure: (§1) For analysis of growth in soft agar, 3 ×10^3 cells were seeded in triplicate onto a six well dish in 4 ml of complete medium containing 0.33% agar solution at 37° C. (34). Cells were fed with 2 ml of medium twice weekly. The assay was performed in triplicate, and colonies were counted 21 days after plating for A549 cells, and 7 days after plating for HEK 293 cells.
(§2) AdoMetinhibits the tumorigenic properties of two different transformed cells lines, A549 human lung carcinoma cells and HEK 293 human embryonal kidney cells—It is well documented that a correlation exists between reduced intracellular AdoMet (either as a consequence of decreased folate intake or pharmacological intervention) and an increase in cell proliferation and tumorigenesis (2, 19). […] We therefore decided to test whether treatment with AdoMet could inhibit the transformation potential of HEK 293 cells, which were shown here to be responsive to AdoMet inhibition of demethylase. We also tested AdoMet effects on the transformed state of A549, a human lung non-small cell carcinoma cell line, to exclude the possibility that AdoMet effects are an idiosyncrasy of HEK 293 cells. Cells were treated for 24 hours with either AdoMet or AdoHcy at a concentration of 4 mM. An equal number of living cells were seeded onto soft agar to test their anchorage independent growth, an indicator of tumorigenesis in vitro. […]

In experiment [3] the test system is HEK 293 human embryonal kidney cells. Nature of the experiment: Soft agar assay (anchorage independent growth), HEK 293 cells. It counts as cell-based. Particulars: single 24 hour treatment at 4 mM, colonies counted 7 days after plating. The procedure:
as §1, §2

In experiment [4] the test system is CMV-GFP expression in HEK 293 cells. Nature of the experiment: GFP expression from transfected CMV-GFP in HEK 293 cells (Western blot). To be noted: for TSA induced GFP expression of methylated CMV-GFP: 0.3 μM TSA, increasing amounts of compound (mM).

T1 sequence (Q9UBB5 150-411 limits assumed): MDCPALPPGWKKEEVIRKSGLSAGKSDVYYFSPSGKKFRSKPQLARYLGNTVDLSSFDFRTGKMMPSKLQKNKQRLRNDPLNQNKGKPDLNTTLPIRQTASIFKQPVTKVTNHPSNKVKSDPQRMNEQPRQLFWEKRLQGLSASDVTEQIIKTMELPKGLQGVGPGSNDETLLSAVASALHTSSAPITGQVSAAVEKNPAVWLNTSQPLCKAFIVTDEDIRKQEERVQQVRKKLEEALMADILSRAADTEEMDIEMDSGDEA

Turning to `Nc1ncnc2c1ncn2[C@@H]1O[C@H](CSCC[C@H](N)C(=O)O)[C@@H](O)[C@H]1O` [AdoHcy, S-adenosylhomocysteine], in experiment [1] (methylated CMV-GFP), the “percentage of methylated GFP remaining (inhibition of TSA induced active demethylation of methylated CMV-GFP)” value is given as “insignificant effect”. For the same compound, the “effect of AdoHcy on inhibition of the demethylase reaction by AdoMet (competition experiment)” value at human MBD2/dMTase (increasing AdoHcy in presence of 10 mM AdoMet, up to tenfold concentration excess of AdoHcy) is “does not diminish inhibition”. The “inhibition of demethylation activity of MBD2/dMTase” value on human MBD2/dMTase (increasing concentrations of AdoHcy) is “no inhibition”. The “colony formation in soft agar (anchorage independent growth)” value in experiment [2] and in experiment [3] was “does not inhibit” throughout. In experiment [4] (methylated CMV-GFP), the “TSA induced GFP expression of methylated CMV-GFP” value is “no significant effect”.

For `C[S+](CC[C@H](N)C(=O)[O-])C[C@H]1O[C@@H](n2cnc3c(N)ncnc32)[C@H](O)[C@@H]1O` (some centres unmarked) [AdoMet, S-Adenosylmethionine], in experiment [1] (methylated CMV-GFP), the “percentage of methylated GFP remaining (inhibition of TSA induced active demethylation of methylated CMV-GFP)” value is listed as “increases in a dose dependent manner”. Also, in experiment [1] (unmethylated CMV-GFP, 8 mM AdoMet), the “de novo methylation of unmethylated CMV-GFP” value is “does not get de novo methylated”. Besides, the “conversion of methyl-dCMP to dCMP by MBD2/dMTase” value on human MBD2/dMTase (2 mM AdoMet) is on record as “greatly reduced”; at human MBD2/dMTase (AdoMet concentrations higher than 4 mM) it was “abolished completely”. Besides, at human MBD2/dMTase (maximum inhibition on dose curve, average of 3 independent experiments), the “inhibition of demethylation attained” value amounted to 100%. The “colony formation in soft agar (anchorage independent growth)” value in experiment [2] is “no colonies are formed”; in experiment [3] it was “only a minimal number of colonies”. In experiment [4] (methylated CMV-GFP), the “TSA induced GFP expression of methylated CMV-GFP” value was “decreased in a dose dependent fashion”. In experiment [4] (unmethylated CMV-GFP, 0.3 μM TSA plus AdoMet), the “induction of non-methylated GFP by TSA” value is on record as “no significant effect”.

With `CC(/C=C/C(=O)NO)=C\[C@@H](C)C(=O)c1ccc(N(C)C)cc1` [TSA, Trichostatin A], the “demethylation of methylated CMV-GFP by endogenous demethylase activity” value in experiment [1] (methylated CMV-GFP, 0.3 μM TSA alone) is recorded as “nearly complete demethylation”. Besides, the “GFP expression of methylated CMV-GFP” value in experiment [4] (methylated CMV-GFP, TSA alone) is reported as “dramatic induction”.
